Our source for the Ki values is PMC7992105 (Medicinal chemistry research : an international journal for …, 2020).

This test has as its target CB2 (cannabinoid receptor subtype 2) (Homo sapiens, UniProt P34972). The class given is binding.

Structures are written as SMILES.

Sequence of CB2 (cannabinoid receptor subtype 2) (P34972 whole entry): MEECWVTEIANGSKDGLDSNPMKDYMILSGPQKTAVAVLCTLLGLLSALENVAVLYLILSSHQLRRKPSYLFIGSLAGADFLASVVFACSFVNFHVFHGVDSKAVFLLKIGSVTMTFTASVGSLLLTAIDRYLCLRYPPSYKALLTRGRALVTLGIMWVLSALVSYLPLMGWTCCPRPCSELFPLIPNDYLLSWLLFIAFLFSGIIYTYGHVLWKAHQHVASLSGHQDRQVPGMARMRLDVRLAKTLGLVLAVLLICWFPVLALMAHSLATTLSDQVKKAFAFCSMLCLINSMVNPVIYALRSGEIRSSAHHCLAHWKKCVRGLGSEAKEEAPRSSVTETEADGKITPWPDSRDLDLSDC

By Ki is commonly meant the equilibrium dissociation constant of an inhibitor or competing ligand from its target. Read a high Ki as weaker binding. Consider `O=C1c2ccccc2NC(=N/N=C/c2c[nH]c3ccccc23)[C@@H]2CCCN12` [4h, (S,E)-11-[2-(3-indolylmethylene)hydrazono]-pyrrolo[2,1-c][1,4]benzodiazepine], for which the Ki turned out to be 4.7 µM.

Consider `O=C1c2ccccc2NC(=N/N=C/c2cccs2)[C@@H]2CCCN12` [4g, (S,E)-11-[2-(2-thiophenylmethylene)hydrazono]-pyrrolo[2,1-c][1,4]benzodiazepine], for which the Ki stood at 0.49 µM.
